Data on nine compounds can be found in US20170216360A1, “METHODS AND COMPOSITIONS FOR IMPROVING HOMING OF CELLS INCLUDING MESENCHYMAL STEM CELLS” (SANOFI, priority 2014, published 2017).

Test [1] has as its system CD11a surface expression on huMSCs. As to the kind of experiment: Medium throughput screen: CD11a surface expression on MSCs, PE-CY5 anti-CD11a antibody, laser-scanning fluorescence microplate cytometer. The class given is cell-based, human. More on the design: key to Cell surface ligand CD11a (induction of expression): NA = negative activity result; A = positive activity result. The settings on record: pretreatment of huMSCs; for EC50: read-out: Cell Surface Marker ED 50 (M) Molar Concentration of Compound for CD11a Expression. The protocol: An in vitro screen was performed for compounds that induce surface expression on huMSCs of the marker CD11a (LFA-1). This screen may be considered a medium throughput screen. Certain compounds that induce the increase of this surface marker were then selected for testing in an in vitro firm adhesion assay and/or in vivo systemic administration in an animal model of inflammation. The surface expression screen involved fluorophore-conjugated antibodies to the respective markers. Following pretreatment with the test compounds, samples of cells were incubated with the labeled antibodies for detection of surface marker expression and change relative to a reference level of untreated cells or negative control samples or values. Cells were pretreated with a concentration (3 μM) of each small molecule compound for 24 hours, followed by incubation with a fluorophore-conjugated anti-marker antibody to detect expression on MSC surface. Surface expression levels of marker ligands were then evaluated by laser-scanning fluorescence microplate cytometer. […] Cell viability in response to compounds was also tested to assess whether molecules have toxicity after 24 hours of pretreatment. Testing was performed on two different huMSC sources representing cells from different donors.
Further details of the screening approach are provided as follows. A unique single batch of bone marrow-derived MSC cells was prepared for the entire screening campaign by cell amplification using CellStack flasks and freezing in separate vials at passage P5. […] For each run, vials were thawed and cells directly seeded on 384-well plates at 3,000 cells per well in MSCGM medium. Following an overnight incubation, cells were treated with the indicated concentrations of compounds for 24 hours. Cells were washed in PBS, 3% BSA and incubated for one hour with PE-CY5-conjugated anti-CD11a monoclonal antibody (clone HI111). Expression of CD11a at the cell surface was detected using the Acumen Explorer, a laser-scanning fluorescence microplate cytometer after two PBS washings. HL-60 cells seeded at 10,000 cells per well and treated with 100 nM phorbol 12-myristate 13-acetate (PMA) for 24 h to induce cell adhesion were used as a positive control in each 384-well plate. Positive compounds were counter-screened for their auto-fluorescence by measuring the signal in the absence of antibody.
A single batch of bone marrow-derived MSC was prepared for the entire screening campaign by cell amplification using CellStack flasks and freezing in separate vials at passage P5. […] For each run, vials were thawed and cells directly seeded on 384-well plates at 3,000 cells per well in MSCGM medium. Following an overnight incubation, cells were pretreated with a low (0.1 μM) and high (3 μM) concentration of the compounds for 24 h. 9,000 cpds were tested in 112 assay plates, each 384-well plate contained 320 cpds (from column 5 to 24), one column for Max (Column2, HL60 cells) and one column for Min (Column4, MSC cells). Cells were washed in PBS, 3% BSA and incubated for one hour with PE-CY5-conjugated anti-CD11a monoclonal Ab (BD Biosciences). Expression of CD11a at the cell surface was detected after two PBS washes using the Acumen Explorer equipment, a laser-scanning fluorescence microplate cytometer. HL-60 cells (seeded at 10,000 cells per well and treated with 100 nM phorbol 12-myristate 13-acetate (PMA) for 24 h to induce cell adhesion) were used as a positive control in each 384-well plate. Positive compounds were counter-screened for their auto-fluorescence by measuring the signal in the absence of Ab. Shown in FIG. 4 is the global screening data. Using the Max, Min columns, we have calculated Max/Min ratio generated with CD11a Ab for each assay plate (signal/background ration in green columns was calculated for each of the 112 assay plates). […]

In test [2] the test system is human mesenchymal stem cells. As to the kind of experiment: In vitro functional firm adhesion assay of cells (Table 3, coating not stated). The class given is cell-based. More on the design: key to Result, in vitro Firm Adhesion: NA = negative activity result; A = positive activity result. The settings on record: for Result, in vitro Firm Adhesion: pretreated huMSCs; for Firm adhesion, Percent increase: relative to untreated and/or negative control MSCs. On the procedure: (§1) Cell adhesion experiments were performed using Bioflux1000 (FluxionBio), allowing accurate control over shear flow. A special 48-well plate was used, in which a microfluidic channel (350 μm×70 μm) connects each pair of adjacent wells (termed inlet and outlet wells). The plate was placed under vacuum and the channels were coated from the inlet with recombinant human E-selectin (5 μg/mL) or ICAM-1 (5 μg/mL) and incubated at 37° C. for 1 h. Prior to introducing the cells into the channel, a wash with PBS−/− from the outlet well was performed for 5 min. Compound-pretreated MSCs were introduced into the channel, followed by attachment period of 2 minutes (no flow applied during the attachment period). Attached cells were then subjected to increasing shear flow, ranging from 0.25 dynes/cm^2 for up to 10 dynes/cm^2. Images were acquired using the Montage software and cell adhesion to the coated channels following subjection to shear flow was examined. See also disclosure elsewhere herein.
1. Obtain preferred channel coating (protein/cell monolayer). 2. Prepare cell suspension (same concentrations detailed above for different cell types). 3. Add 50 μl of cell suspension to outlet well. 4. Introduce cells into channel by applying shear force of 2 dynes/cm^2 (cells should be observed within 10-15 sec flowing from outlet to inlet). 5. Once cells are observed in the channel, stop the flow and allow the introduced cells to sit for different time periods ranging from 30 seconds to 5 minutes. 6. Following this settling period, apply shear force starting from 0.5 dynes/cm^2 up to 10 dynes/cm^2 and acquire videos using stream acquisition. 7. Cell quantification is then performed using the Montage software—percentage of cells adhered, rolled or washed away after applying shear flow should be quantified.

Test [3] concerns LPS-induced inflamed mouse ear. Nature of the test: In vivo MSC homing to LPS-induced inflamed ear after systemic infusion, intravital microscopy. More on the design: key to In vivo functional assay (homing): NA = negative activity result; A = positive activity result. The settings on record: for Increase of MSC homing to inflamed ear (%): relative to untreated cells. The protocol: C57BL/6 mice (Charles River Laboratories, Wilmington, Mass.) were anesthetized with ketamine/xylazine and their ears shaved 24 h prior to cell infusion. To induce an inflammatory response, 30 μg of E. coli lipopolysaccharide (LPS, Sigma, St. Louis, Mo.) in 50 μL saline was injected into the pinna of the left ear, with 50 μL 0.9% saline injected into the right ear as a control. For in vivo dye sensitivity validation, 1×10e6 cells of each stain were suspended in 150 μL PBS (pH 7.4) and injected by retro-orbital vein infusion.
To evaluate the minimum number of cells needed for a reproducible response, each mouse (n=4) received a range of cell doses (10,000, 50,000, 100,000, or 500,000) each of cells stained with Dil or DiD with a dye switch (i.e., dyes used for experimental and control cells were alternated to prevent bias based on the dyes that were used). To evaluate the impact of small molecule hit pre-treatment on MSC homing to the inflamed ear, MSCs were incubated with 3 μM of the small molecule hit or 0.1% DMSO as a control for 24 h before staining and in vivo administration. To highlight the vasculature, 50 μL of 10 mg/mL FITC-dextran ([…]; Sigma, St. Louis, Mo.) was injected retro-orbitally prior to imaging.
In vitro staining and in vivo homing of stained MSCs to the skin was imaged noninvasively in real time using a custom-built video-rate laser-scanning confocal microscope designed specifically for live animal imaging. For in vivo imaging, the mouse ear was positioned under a coverslip with methylcellulose gel and images acquired at 30 frames per second at a depth up to 200 μm using a 60×1.0NA water immersion objective lens (Olympus, Center Valley, Pa.). DiO labeled MSCs were excited with a 491 nm continuous wave (CW) laser (Cobalt, Stockholm, Sweden), and detected through a 520±20 nm bandpass filter (Semrock, Inc., Rochester, N.Y.). Dil labeled MSCs were excited with a 561 nm CW laser (Coherent, Inc., Santa Clara, Calif.) and detected through a 593 nm±40 nm filter (Omega Optical, Brattleboro, Vt.). DiD labeled MSCs were excited with a 635 nm CW laser (Coherent, Inc., Santa Clara, Calif.) and detected through a 695 nm±27.5 nm band pass filter (Omega Optical, Brattleboro, Vt.). DiR labeled MSCs were excited using a femtosecond Ti:Sapphire Maitai source for single photon excitation at 750 nm (Spectra Physics, Santa Clara, Calif.) and collected through a 785 nm±31 nm band pass filter (Omega Optical, Brattleboro, Vt.).
For quantification, the average number of cells in 20 representative imaging locations across the inflamed region was counted in each mouse. Cells were defined as having a diameter from 10-30 μm to eliminate debris and clumps from analysis, and a primary channel intensity greater than 2 to eliminate autofluorescent events. The average relative detection sensitivity (ratio of Dil/DiD counts) determined in the overall dye efficiency experiments were used to scale the counts for DiD stained cells. […] For multiple comparisons, Tukey's HSD test was used. Error bars in graphs represent standard error, and statistical significance is denoted by * p<0.05.

Test [4] deals with MSC firm adhesion to ICAM-1-coated surface. As to the kind of experiment: ICAM-1 firm adhesion assay under shear flow, with antibody blocking. Conditions: 3 μM for 24 h. The class given is cell-based, human. On the procedure:
as §1
Pre-confluent MSCs were incubated for 24 hours with the indicated small molecules (3 μM). MSCs were than detached, washed and incubated for 30 minutes with an antibody reagent. The following antibodies are used: anti-human CD11a (clone: HI111), anti-human CD90 (clone: MAB2067), mouse anti-human CD11a (clone: TS1/22), and mouse IgG1 isotype control. Cells were then introduced into the channel and given 2 minutes to adhere before being subjected to increasing shear flow for a firm adhesion assay on a microfluidic channel coated with E-selectin or ICAM-1.

In test [5] the test system is CD11a surface expression on MSCs. As to the kind of experiment: Flow cytometry of CD11a surface expression on MSCs (FITC-CD11a Ab). The class given is cell-based, human. Conditions: 3 μM for 24 h. On the procedure: MSCs were pretreated with DMSO vehicle control (DMSO-MSC, 0.1%) or ruboxistaurin (Rub-MSC, 3 μM) for 24 h and CD11a expression levels were assessed via flow cytometry (cells were stained with either FITC-CD11a Ab or isotype control, representative data from n=3 independent experiments).

Entries after “also recorded” stand apart in the source; their conditions may differ. Counter-ions that a name gives are not always drawn. Like-named read-outs stand apart in the source and are kept apart here. A value given as a limit tells only on which side of the number the result lay.

On to `CN1C(=O)C(c2c[nH]c3ccccc23)=C(c2cn(C)c3ccccc23)C1=O` [Compound 1905, 3-(1H-indol-3-yl)-1-methyl-4-(1-methyl-1H-indol-3-yl)-pyrrole-2,5-dione], for which the EC50 in test [1] (Homo sapiens) was 1.68e-05 M.
In the case of `Cn1cc(C2=C(c3cn(C4CCN(Cc5ccccn5)CC4)c4ccccc34)C(=O)NC2=O)c2ccccc21` [Compound 1906, 3-(1-methyl-1H-indol-3-yl)-4-[1-(1-pyridin-2-ylmethyl-piperidin-4-yl)-1H-indol-3-yl]-pyrrole-2,5-dione, reference compound], in test [1] (Homo sapiens), the EC50 was 3.19e-06 M.
In the case of `Cn1cc(C2=C(c3cn(C)c4ccccc34)C(=O)NC2=O)c2ccccc21` [Compound 1912, 3,4-bis-(1-methyl-1H-indol-3-yl)-pyrrole-2,5-dione], the “Cell surface ligand CD11a (induction of expression)” value (“Cell surface ligand CD11a” for short) in test [1] is given as “A”.
For the compound `Cn1cc(C2=C(c3c4n(c5ccccc35)CCC(CN)C4)C(=O)NC2=O)c2ccccc21` (stereo not shown) [Compound 1919, 3-(8-aminomethyl-6,7,8,9-tetrahydro-pyrido[1,2-a]indol-10-yl)-4-(1-methyl-1H-indol-3-yl)-pyrrole-2,5-dione], in test [1], the “Cell surface ligand CD11a” value is “A” and the EC50 amounted to 2.75e-06 M. Further, in test [2], the “Result, in vitro Firm Adhesion” value is given as “A” and the “Firm adhesion, Percent increase” value is on record as 81%. Also, the “Increase of MSC homing to inflamed ear (%)” value in test [3] came to 45%. For the same compound, in test [3] (systemic administration of pretreated huMSCs), the “In vivo functional assay (homing)” value is “A”.
`O=C1C(c2c[nH]c3ccccc23)=C(c2c[nH]c3ccccc23)C(=O)N1Cc1ccccc1` [Compound 1921, 1-benzyl-3,4-bis-(1H-indol-3-yl)-pyrrole-2,5-dione]: in test [1] (Homo sapiens), the EC50 came out at 1.75e-05 M. Further, the “Cell surface ligand CD11a” value in test [1] is reported as “A”.
For the compound `CN1CCCC1CCn1cc(C2=C(c3c[nH]c4ccccc34)C(=O)NC2=O)c2ccccc21` (stereo not shown) [Compound 1928, 3-(1H-indol-3-yl)-4-{1-[2-(1-methyl-pyrrolidin-2-yl)-ethyl]-1H-indol-3-yl}-pyrrole-2,5-dione], the “Cell surface ligand CD11a” value in test [1] is “A”.
On to `CN(C)CC1CCn2c(c(C3=C(c4cn(C)c5ccccc45)C(=O)NC3=O)c3ccccc32)C1` (stereo not shown) [Compound 1933, 3-(8-dimethylaminomethyl-6,7,8,9-tetrahydro-pyrido[1,2-a]indol-10-yl)-4-(1-methyl-1H-indol-3-yl)-pyrrole-2,5-dione hydrochloride], for which the EC50 in test [1] (Homo sapiens) turned out to be 2.49e-05 M. Further, in test [1], the “Cell surface ligand CD11a” value is “A”. In test [2], the “Result, in vitro Firm Adhesion” value is reported as “A” and the “Firm adhesion, Percent increase” value is reported as 75%. Besides, the “Increase of MSC homing to inflamed ear (%)” value in test [3] is below 10%.
For `CN(C)CCCn1cc(C2=C(c3c[nH]c4ccccc34)C(=O)NC2=O)c2ccccc21` [Compound 1934, 3-[1-(3-dimethylamino-propyl)-1H-indol-3-yl]-4-(1H-indol-3-yl)-pyrrole-2,5-dione], the “Cell surface ligand CD11a” value in test [1] is “A”.
As to `CN(C)C[C@@H]1CCn2cc(c3ccccc32)C2=C(C(=O)NC2=O)c2cn(c3ccccc23)CCO1` [Ruboxistaurin, ruboxistaurin, reference compound], in test [1] (Homo sapiens), the EC50 is above 3e-05 M. For the same compound, the “MSC firm adhesion to ICAM-1-coated substrates, result in words” value in test [4] is given as “did not improve”. The “Firm adhesion, Percent increase” value in test [2] was 0% (negative response). The “CD11a surface expression on MSCs” value in test [5] was “did not increase; also recorded: does not upregulate”.
